Measurements as given in patent US7825110B2, “Substituted spiroheterocycles” (Janssen Pharmaceutica NV, priority 2006, dated 2010).

Assays:
human V1a receptor [1] = target: T1, human V1a receptor (Homo sapiens, UniProt P37288); test: V1a vasopressin receptor functional activity (intracellular calcium mobilization, FLIPR, V1a-HEK cells); type: cell-based; settings: antagonism of vasopressin-induced calcium mobilization in V1a-HEK cells
Experimental: The V1a receptor is a G-protein coupled receptor, which upon activation triggers an increase in intracellular calcium mobilization. To evaluate compounds for their functional V1a receptor activity, HEK-293 cells were transfected with the human V1a receptor (V1a-HEK cells). HEK-293 cells were grown in DMEM (Dulbecco's modified Eagle Media) supplemented with 10% FBS and glutamine. HEK-cells were passed biweekly by trypsinization and seeded into 96 well plates at 33,000 cells per well. HEK-293 cells were transfected with human V1a receptor DNA using DMRIE-C reagent from Life Technologies (Carlsbad, Calif.). Stable lines were generated by selecting cells grown in culture media containing geneticin. After growing in Packard Clear-View black 96 well plates for 4-6 days, V1a-HEK cells were loaded with the calcium-sensitive fluorescence dye, FLUO-3 AM. Changes in intracellular calcium mobilization were measured by quantitating intracellular fluorescence using FLIPR (Fluorometric Imaging Plate Reader; Molecular Devices, Sunnyvale, Calif.). Test compounds were first added to the cells and the resulting changes in fluorescence measured to detect receptor agonistic activity. Five minutes later the cells were challenged with vasopressin to test compounds for their antagonistic activity. Receptor antagonists inhibit the ability of vasopressin to stimulate increases in intracellular fluorescence. IC50's were calculated.

human V1a receptor [2] = target: T1, human V1a receptor; test: In-vitro binding assay, 3H-arginine-8-vasopressin, V1a; settings: for IC50: membrane containing human V1a receptor, displacement of H3 vasopressin; for inhibition at 0.2 µM: 0.2 μM test compound, read-out: V1a (binding), Percent inhibition at 0.2 μM
Experimental: (§1) Assay buffer is 50 mM Tris-Cl, 5 mM MgCl2, 0.1% BSA (pH 7.5) containing 5 μg/ml of aprotinin, leupeptin, pepstatin, 50 μg/ml bacitracin, and 1 mM Pefabloc (4-(2-Aminoethyl)-benzenesulfonyl fluoride, hydrochloride manufactured by Roche Diagnostics Corporation, Indianapolis, Ind. and distributed by Boehringer Mannheim). H3 vasopressin is ^3H-arginine-8-vasopressin (NEN Life Sciences, Boston, Mass.; 68.5 Ci/mmol, final concentration in assay is 0.65-0.75 nM). Into wells of 96-well round bottom polypropylene plates are added buffer, test compound, membrane (containing human V1a or V2 receptor), and H3 vasopressin. The reaction plates are allowed to sit at room temperature for one hour. The samples are filtered through Unifilter GF/C plates (PerkinElmer Life Sciences, Boston, Mass.) presoaked in […]. The plates are washed 5 times with cold physiological saline containing 0.05% Tween 20. After drying, the bottom of the filter plates
(§2) [formula] are sealed and 0.025 ml of Microscint-20 (Packard Instrument Co, Meriden, Conn.) is added to each filter. The top of the plate is sealed, and the plate is counted. Non-specific binding is determined by the addition of 1.25 μM arginine-8-vasopressin in those wells. % Inh. is calculated as follows: […]

human V2 receptor [3] = target: T2, human V2 receptor (Homo sapiens, UniProt P30518); test: In-vitro binding assay, 3H-arginine-8-vasopressin, V2; settings: for inhibition at 0.2 µM: 0.2 μM test compound, read-out: V2 (binding), Percent inhibition at 0.2 μM; for IC50: membrane containing human V2 receptor, displacement of H3 vasopressin
Experimental: as §1, §2

human V2 receptor [4] = target: T2, human V2 receptor; test: V2 vasopressin receptor functional activity (cAMP accumulation, V2-HEK cells); type: cell-based; set-up: expressed in transfected cells; host or cells: HEK-293; settings: block of vasopressin-stimulated cAMP accumulation in V2-HEK cells
Experimental: The V2 receptor is also a G-protein coupled receptor which when activated induces an increase in cAMP turnover. Antagonism against the V2 receptor is determined by measuring cAMP accumulation in transfected HEK-293 cells expressing the human V-2 receptor (V2-HEK cells). Compounds are tested for their ability to block the stimulatory effects of vasopressin on cAMP accumulation. The cell content of cAMP is measured by radioimmunoassay using NEN flashplates.

T1 sequence (P37288 whole entry): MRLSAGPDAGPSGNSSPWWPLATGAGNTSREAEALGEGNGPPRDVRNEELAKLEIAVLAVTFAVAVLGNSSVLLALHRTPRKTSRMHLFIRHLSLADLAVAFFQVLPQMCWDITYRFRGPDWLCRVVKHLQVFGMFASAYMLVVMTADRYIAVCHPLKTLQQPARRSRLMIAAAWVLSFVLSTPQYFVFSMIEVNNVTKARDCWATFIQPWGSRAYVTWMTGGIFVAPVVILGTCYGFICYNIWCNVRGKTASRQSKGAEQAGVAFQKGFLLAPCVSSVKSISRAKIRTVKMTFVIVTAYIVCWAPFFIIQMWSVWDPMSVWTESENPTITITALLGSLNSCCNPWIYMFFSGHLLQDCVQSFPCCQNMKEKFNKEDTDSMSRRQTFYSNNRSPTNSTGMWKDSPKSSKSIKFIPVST
T2 sequence (P30518 whole entry): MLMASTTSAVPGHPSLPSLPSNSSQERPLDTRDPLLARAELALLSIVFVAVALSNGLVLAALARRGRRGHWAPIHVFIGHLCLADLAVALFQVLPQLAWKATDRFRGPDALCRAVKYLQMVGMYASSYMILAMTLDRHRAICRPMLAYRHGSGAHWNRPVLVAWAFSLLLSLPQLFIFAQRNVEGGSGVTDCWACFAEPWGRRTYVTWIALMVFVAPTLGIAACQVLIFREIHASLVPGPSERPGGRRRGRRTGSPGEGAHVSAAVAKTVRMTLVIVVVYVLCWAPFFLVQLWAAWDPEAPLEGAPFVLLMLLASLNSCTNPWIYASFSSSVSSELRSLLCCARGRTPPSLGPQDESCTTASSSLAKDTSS

| Compound | IC50 (human V1a receptor [1]) | IC50 (human V1a receptor [2]) | inhibition at 0.2 µM (human V2 receptor [3]) | IC50 (human V2 receptor [4]) | IC50 (human V2 receptor [3]) | inhibition at 0.2 µM (human V1a receptor [2]) |
| --- | --- | --- | --- | --- | --- | --- |
| CN1CCCC2(CCN(C(=O)c3ccc(NC(=O)c4cc(F)ccc4Cl)cc3)c3ccccc3C2)C1 (centres unmarked) [Compound 8, Benzamide, 2-chloro-N-[4-{(2,3-dihydro-1′-methyl-spiro[4H-1-benzazepine-4,3-piperidin}-1(5H)-yl)carbonyl}phenyl]-5-fluoro] | 0.01 µM | 0.012 µM | 52% | 0.46 µM | – | – |
| CN1CCCC2(CCN(C(=O)c3ccc(NC(=O)c4ccccc4-c4ccccc4)cc3)c3ccccc3C2)C1 (centres unmarked) [Compound 10, [1,1′-Biphenyl]-2-carboxamide, N-[4-[(2,3-dihydro-1′-methyl-spiro{4H-1-benzazepine-4,3′-piperidin}-1(5H)-yl)carbonyl]phenyl}-] | 0.08 µM | 0.015 µM | – | 0.064 µM | 0.029 µM | – |
| O=C(Nc1ccc(C(=O)N2CCC3(CCN(C4CCCC4)C3)Cc3ccccc32)cc1)c1ccccc1-c1ccccc1 (centres unmarked) [Compound 18] | – | – | 70% | – | – | 66% |
| COC(=O)CN1CCC2(CCN(C(=O)c3ccc(NC(=O)c4ccccc4-c4ccccc4)cc3)c3ccccc3C2)C1 (centres unmarked) [Compound 22, [1,1′-Biphenyl]-2-carboxamide, N-[4-[(2,3-dihydro-1′-acetic acid-spiro{4H-1-benzazepine-4,3′-pyrrolidin}-1(5H)-yl)carbonyl]phenyl}-, methyl ester] | 0.4 µM | – | – | 0.049 µM | 0.11 µM | 66% |
| CCOC(=O)CN1CCC2(CCN(C(=O)c3ccc(NC(=O)c4ccccc4-c4ccccc4)cc3)c3ccccc3C2)C1 (centres unmarked) [Compound 23, [1,1′-Biphenyl]-2-carboxamide, N-[4-[(2,3-dihydro-1′-acetic acid-spiro{4H-1-benzazepine-4,3′-pyrrolidin}-1(5H)-yl)carbonyl]phenyl}-, ethyl ester] | 0.78 µM | – | 58% | 0.673 µM | – | 75% |
| CCOC(=O)CC(=O)N1CCC2(CCN(C(=O)c3ccc(NC(=O)c4ccccc4-c4ccccc4)cc3)c3ccccc3C2)C1 (centres unmarked) [Compound 25, [1,1′-Biphenyl]-2-carboxamide, N-[4-[(2,3-dihydro-1′-pyruvic acid-spiro{4H-1-benzazepine-4,3′-pyrrolidin}-1(5H)-yl)carbonyl]phenyl}-, ethyl ester] | – | – | 77% | 0.306 µM | – | 35% |
| O=C(O)CC(=O)N1CCC2(CCN(C(=O)c3ccc(NC(=O)c4ccccc4-c4ccccc4)cc3)c3ccccc3C2)C1 (centres unmarked) [Compound 26] | – | – | 83% | 0.272 µM | – | 23% |
| CC(=O)N1CCC2(CCN(C(=O)c3ccc(NC(=O)c4ccccc4-c4ccccc4)cc3)c3ccccc3C2)C1 (centres unmarked) [Compound 27, [1,1′-Biphenyl]-2-carboxamide, N-[4-[(2,3-dihydro-1′-acetyl-spiro{4H-1-benzazepine-4,3′-pyrrolidin}-1(5H)-yl)carbonyl]phenyl}-] | 0.21 µM | – | 78% | 0.182 µM | – | 61% |
| CN(C)CC(=O)N1CCC2(CCN(C(=O)c3ccc(NC(=O)c4ccccc4-c4ccccc4)cc3)c3ccccc3C2)C1 (centres unmarked) [Compound 28, [1,1′-Biphenyl]-2-carboxamide, N-[4-[(2,3-dihydro-(1′-(2-(dimethylamino)acetyl))spiro{4H-1-benzazepine-4,3′-pyrrolidin}-1(5H)-yl)carbonyl]phenyl]-;] | – | 0.26 µM | – | – | – | – |
